In US20240384250A1, “FIBROBLAST GROWTH FACTOR 23 MODULATING COMPOUNDS” (THE UAB RESEARCH FOUNDATION, priority 2021, published 2024):

How the values were obtained:
Test in all cases: Surface plasmon resonance, heparin immobilized on chip
Assay type in all cases: binding
Conditions in all cases: SPR
FGFR4 = biological target: T1, FGFR4 (Homo sapiens, UniProt P22455)
T1 construct: Fc-FGFR4 protein (human ectodomain) was immobilized; purchased R&D Systems 685FR050
Method: (§1) For the direct quantitative analysis of label-free molecular interactions in real time, surface plasmon resonance studies were conducted using BIAcore T200 and T200 evaluation software (28975001, Cytiva). Sensor SA (BR100398) and CMS chips (BR100399) were from Cytiva. For the preparation of heparin chips, heparin (2 mg) and amine-PEG3-Biotin (2 mg, 21347, Pierce) were dissolved in 200 μl of H2O and 10 mg of NaCNBH3 was added. The reaction mixture was heated at 70° C. for 24 hours; an additional 10 mg of NaCNBH3 was added; and the reaction was heated at 70° C. for another 24 hours. After cooling to room temperature, the mixture was desalted with the spin column (3000 MWCO). Biotinylated heparin was collected, freeze dried, and used for chip preparation. Biotinylated heparin was immobilized to streptavidin chips according to the manufacturer's protocol. In brief, 20 μl of biotinylated heparin solution (0.1 mg/ml) in HBS-P running buffer (0.01 M N-2-hydroxyethylpiperazine-N′-2-ethanesulfonic acid, 0.15 M NaCl, 0.005% surfactant P20 [pH7.4]; BR100368, Cytiva) was injected over flow cell 2 of the streptavidin chip at a flow rate of 10 μl/min. The successful immobilization of heparin was confirmed by the observation of an approximately 200-resonance unit increase in the sensor chip. The control flow cell (flow cell 1) was prepared by 1-minute injection with saturated biotin. For the preparation of FGFR4 chips, Fc-FGFR4 protein (human ectodomain) was immobilized on research grade CMS chips according to the standard amine coupling protocol. Briefly, carboxymethyl groups on the CMS chip surface were first activated using an injection pulse of […] of an equimolar mix of N-ethyl-N-(dimethylaminopropyl) carbodiimide and N-hydroxysuccinimide (final concentration 0.05 M, mixed immediately before injection). After activation, FGFR4 was diluted to […] in 100 mM sodium acetate (pH 5.5) buffer and injected over the activated biosensor surface. Excess unreacted sites on the sensor surface were deactivated with a 35 μl injection of 1 M ethanolamine. A reference flow cell was prepared using an injection pulse of […] of an equimolar mix of N-ethyl-N-(dimethylaminopropyl) carbodiimide and N-hydroxysuccinimide (final concentration 0.05 M, mixed immediately before injection) followed by a 35 μl injection of 1 M ethanolamine. For the measurement of interactions between FGF23 (human protein), FGFR4 (human ectodomain protein), klotho (human ectodomain, self-made; see above), and heparin, samples were diluted in HBS-P buffer. Different dilutions of protein were injected at a flow rate of 30 μl/min with HBS-P buffer as running buffer. At the end of the sample injection, HBS-P buffer was flowed over the sensor surface to facilitate dissociation. After a 3-minute dissociation time, the sensor surface was regenerated by injecting with 30 μl of 2 M NaCl to get a fully regenerated surface. The response was monitored as a function of time (sensorgram) at 25° C.

klotho = biological target: T2, klotho (Homo sapiens, UniProt Q9UEF7)
T2 construct: The sKL recombinant protein produced is mouse aa 35-982 and human aa 34-981; made in house; host or cells: Expi293 (HEK293) cells, stably transfected
T2 sequence (Q9UEF7 34-981): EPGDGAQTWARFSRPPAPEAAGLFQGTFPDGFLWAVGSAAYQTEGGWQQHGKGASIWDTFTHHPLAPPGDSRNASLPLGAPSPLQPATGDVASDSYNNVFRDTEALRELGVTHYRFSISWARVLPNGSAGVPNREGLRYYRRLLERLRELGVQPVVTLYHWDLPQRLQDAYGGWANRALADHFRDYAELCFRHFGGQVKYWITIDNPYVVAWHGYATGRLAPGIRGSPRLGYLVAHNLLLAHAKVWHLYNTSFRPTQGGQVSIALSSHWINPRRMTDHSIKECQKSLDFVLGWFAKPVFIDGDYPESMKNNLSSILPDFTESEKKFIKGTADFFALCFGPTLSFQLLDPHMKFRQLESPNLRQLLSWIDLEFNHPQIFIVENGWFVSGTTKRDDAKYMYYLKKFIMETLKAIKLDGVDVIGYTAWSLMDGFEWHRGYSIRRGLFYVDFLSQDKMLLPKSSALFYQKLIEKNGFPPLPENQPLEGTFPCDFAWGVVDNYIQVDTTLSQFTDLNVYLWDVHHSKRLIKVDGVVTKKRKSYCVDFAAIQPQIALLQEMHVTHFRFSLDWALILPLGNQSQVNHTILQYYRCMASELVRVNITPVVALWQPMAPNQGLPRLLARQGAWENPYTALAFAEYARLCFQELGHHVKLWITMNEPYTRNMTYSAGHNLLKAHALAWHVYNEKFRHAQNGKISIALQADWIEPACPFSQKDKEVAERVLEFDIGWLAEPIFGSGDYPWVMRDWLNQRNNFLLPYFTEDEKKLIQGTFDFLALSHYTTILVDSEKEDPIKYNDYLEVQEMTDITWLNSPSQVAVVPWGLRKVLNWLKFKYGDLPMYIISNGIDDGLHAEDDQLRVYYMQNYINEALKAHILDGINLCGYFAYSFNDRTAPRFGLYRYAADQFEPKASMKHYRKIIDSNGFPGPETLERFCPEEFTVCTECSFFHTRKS
Method: as §1

FGF23 = biological target: T3, FGF23 (Homo sapiens, UniProt Q9GZV9, R179Q)
T3 construct: purchased R&D Systems 2604FG025/CF
T3 sequence (Q9GZV9 25-251 R179Q): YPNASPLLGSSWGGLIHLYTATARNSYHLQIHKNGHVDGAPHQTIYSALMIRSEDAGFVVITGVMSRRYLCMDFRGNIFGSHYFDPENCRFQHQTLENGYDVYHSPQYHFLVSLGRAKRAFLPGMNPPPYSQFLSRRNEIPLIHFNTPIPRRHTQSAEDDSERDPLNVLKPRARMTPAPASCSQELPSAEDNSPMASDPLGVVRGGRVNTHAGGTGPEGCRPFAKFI
Method: as §1

T1 sequence (P22455 22-369 limits assumed): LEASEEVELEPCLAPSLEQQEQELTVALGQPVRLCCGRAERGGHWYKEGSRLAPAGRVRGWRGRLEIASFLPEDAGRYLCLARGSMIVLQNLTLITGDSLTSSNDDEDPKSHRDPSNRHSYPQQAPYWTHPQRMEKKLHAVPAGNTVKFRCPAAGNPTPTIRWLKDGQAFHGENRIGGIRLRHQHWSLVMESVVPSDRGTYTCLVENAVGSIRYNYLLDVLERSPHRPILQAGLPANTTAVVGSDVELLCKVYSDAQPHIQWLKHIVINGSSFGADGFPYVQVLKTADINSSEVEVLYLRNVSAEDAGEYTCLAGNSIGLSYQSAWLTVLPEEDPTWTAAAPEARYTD

ka (FGFR4; 25° C.): 1.2 × 10^6 1/MS
Kd (FGFR4; read-out: dissociation constant KD): 2.8 nM
Kd (klotho): 15 nM
ka (klotho; 25° C.): 8.0 × 10^4 1/MS
kd (klotho; 25° C.): 1.1 × 10^−3 1/S
Kd (FGF23): 7.6 nM
ka (FGF23; 25° C.): 4.8 × 10^5 1/MS
kd (FGF23; 25° C.): 3.6 × 10^−3 1/S
Substance: heparin [reference compound]
